# pIC50: −log10 of the molar value.
# Target: NaV1.8 (Homo sapiens, UniProt Q9Y5Y9)
# Assay: Activity against NaV 1.8 channel (NaV inhibition assay)
# Type: cell-based
# Method: Compounds of the invention are useful as antagonists of voltage-gated sodium ion channels. Antagonist properties of test compounds were assessed as follows. Cells expressing the NaV of interest were placed into microtiter plates. After an incubation period, the cells were stained with fluorescent dyes sensitive to the transmembrane potential. The test compounds were added to the microtiter plate. The cells were stimulated with either a chemical or electrical means to evoke a NaV dependent membrane potential change from unblocked channels, which was detected and measured with trans-membrane potential-sensitive dyes. Antagonists were detected as a decreased membrane potential response to the stimulus. The optical membrane potential assay utilized voltage-sensitive FRET sensors described by Gonzalez and Tsien (See, Gonzalez, J. E. and R. Y. Tsien (1995) “Voltage sensing by fluorescence resonance energy transfer in single cells” Biophys J 69(4):1272-80, and Gonzalez, J. E. and R. Y. Tsien (1997) “Improved indicators of cell membrane potential that use fluorescence resonance energy transfer” Chem Biol 4(4):269-77) in combination with instrumentation for measuring fluorescence changes such as the Voltage/Ion Probe Reader (VIPRO®) (See, Gonzalez, J. E., K. Oades, et al. (1999) “Cell-based assays and instrumentation for screening ion-channel targets” Drug Discov Today 4(9):431-439).
# 24 hours before the assay on VIPR, CHO cells endogenously expressing a NaV1.2 type voltage-gated NaV are seeded in 96-well poly-lysine coated plates at 60,000 cells per well. Other subtypes are performed in an analogous mode in a cell line expressing the NaV of interest.
# The following is an example of how NaV1.3 inhibition activity is measured using the optical membrane potential method #2. Other subtypes are performed in an analogous mode in a cell line expressing the NaV of interest.
# HEK293 cells stably expressing NaV1.3 are plated into 96-well microtiter plates. After an appropriate incubation period, the cells are stained with the voltage sensitive dyes CC2-DMPE/DiSBAC2(3) as follows.
# Patch clamp electrophysiology was used to assess the efficacy and selectivity of sodium channel blockers in dorsal root ganglion neurons. Rat neurons were isolated from the dorsal root ganglions and maintained in culture for 2 to 10 days in the presence of NGF (50 ng/ml) (culture media consisted of NeurobasalA supplemented with B27, glutamine and antibiotics). Small diameter neurons (nociceptors, 8-12 μm in diameter) have been visually identified and probed with fine tip glass electrodes connected to an amplifier (Axon Instruments). The “voltage clamp” mode has been used to assess the compound's IC50 holding the cells at −60 mV. In addition, the “current clamp” mode has been employed to test the efficacy of the compounds in blocking action potential generation in response to current injections. The results of these experiments have contributed to the definition of the efficacy profile of the compounds.
# TTX-resistant sodium currents were recorded from DRG somata using the whole-cell variation of the patch clamp technique. Recordings were made at room temperature (˜22° C.) with thick walled borosilicate glass electrodes (WPI; resistance 3-4 MΩ) using an Axopatch 200B amplifier (Axon Instruments). After establishing the whole-cell configuration, approximately 15 minutes were allowed for the pipette solution to equilibrate within the cell before beginning recording. Currents were lowpass filtered between 2-5 kHz and digitally sampled at 10 kHz. Series resistance was compensated 60-70% and was monitored continuously throughout the experiment. The liquid junction potential (−7 mV) between the intracellular pipette solution and the external recording solution was not accounted for in the data analysis. Test solutions were applied to the cells with a gravity driven fast perfusion system (SF-77; Warner Instruments). […]
row,Compound,pIC50
1,"CC(C)COC(=O)N1CCN(c2cc(-c3ccccc3C(F)F)ncn2)CC1 [Compound 4, 4-[6-[2-(difluoromethyl)phenyl]pyrimidin-4-yl]piperazine-1-carboxylic acid isobutyl ester]",< 4.82
2,"COCCOC(=O)NC1CCN(c2cncc(-c3ccccc3C(F)F)n2)CC1 [Compound 19, [1-[6-[2-(difluoromethyl)phenyl]pyrazin-2-yl]-4-piperidyl]aminoformic acid 2-methoxyethyl ester]",> 5.00
3,"CC(C)C[C@@H](O)C(=O)N1CCN(c2ccnc(-c3ccccc3F)n2)CC1 [Compound 42, 1-[4-[2-(2-fluorophenyl)pyrimidin-4-yl]piperazin-1-yl]-2-hydroxy-4-methyl-pentan-1-one]",< 4.82
4,"CC(C)C(=O)N[C@@H]1CCN(c2cncc(-c3ccccc3O)n2)C1 [Compound 14, N-[1-[6-(2-hydroxyphenyl)pyrazin-2-yl]pyrrolidin-3-yl]-2-methyl-propanamide]",< 4.82
5,"CC(C)C(=O)N[C@@H]1CCN(c2cncc(-c3ccccc3C(F)F)n2)C1 [Compound 28, N-[1-[6-[2-(difluoromethyl)phenyl]pyrazin-2-yl]pyrrolidin-3-yl]-2-methyl-propanamide]",< 4.82
6,"CC(C)COC(=O)N1CCN(c2ccnc(-c3ccccc3F)n2)CC1 [Compound 10, 4-[2-(2-fluorophenyl)pyrimidin-4-yl]piperazine-1-carboxylic acid isobutyl ester]",< 4.82
7,"CC(C)(C)OC(=O)N[C@@H]1CCN(c2cncc(-c3ccccc3C(F)F)n2)C1 [Compound 43, [1-[6-[2-(difluoromethyl)phenyl]pyrazin-2-yl]pyrrolidin-3-yl]aminoformic acid tert-butyl ester]",4.82 to 5.00
8,"CC(C)COC(=O)NC1CCN(c2ccnc(-c3ccccc3C(F)F)n2)CC1 [Compound 13, [1-[2-[2-(difluoromethyl)phenyl]pyrimidin-4-yl]-4-piperidyl]aminoformic acid isobutyl ester]",> 5.00
9,"CC(C)COC(=O)N1CCN(c2cncc(-c3ccccc3F)n2)CC1 [Compound 46, 4-[6-(2-fluorophenyl)pyrazin-2-yl]piperazine-1-carboxylic acid isobutyl ester]",< 4.82
10,"CC(C)C[C@@H](O)C(=O)N1CCN(c2ccnc(-c3ccccc3C(F)F)n2)CC1 [Compound 21, 1-[4-[2-[2-(difluoromethyl)phenyl]pyrimidin-4-yl]piperazin-1-yl]-2-hydroxy-4-methyl-pentan-1-one]",< 4.82
11,"CC(C)COC(=O)N1CCN(c2nccc(-c3ccccc3C(F)F)n2)CC1 [Compound 24, 4-[4-[2-(difluoromethyl)phenyl]pyrimidin-2-yl]piperazine-1-carboxylic acid isobutyl ester]",4.82 to 5.00
12,"COCCOC(=O)NC1CCN(c2cncc(-c3ccccc3O)n2)CC1 [Compound 47, [1-[6-(2-hydroxyphenyl)pyrazin-2-yl]-4-piperidyl]aminoformic acid 2-methoxyethyl ester]",< 4.82
13,"CC(C)OC(=O)N[C@@H]1CCN(c2cncc(-c3ccccc3F)n2)C1 [Compound 22, [1-[6-(2-fluorophenyl)pyrazin-2-yl]pyrrolidin-3-yl]aminoformic acid isopropyl ester]",< 4.82
14,"CC(C)C[C@@H](O)C(=O)N1CCN(c2cc(-c3ccccc3F)ncn2)CC1 [Compound 44, 1-[4-[6-(2-fluorophenyl)pyrimidin-4-yl]piperazin-1-yl]-2-hydroxy-4-methyl-pentan-1-one]",< 4.82
15,"CC(C)COC(=O)N1CCN(c2nccc(-c3ccccc3O)n2)CC1 [Compound 25, 4-[4-(2-hydroxyphenyl)pyrimidin-2-yl]piperazine-1-carboxylic acid isobutyl ester]",> 5.00
16,"CC(C)(C)OC(=O)N[C@@H]1CCN(c2cncc(-c3ccccc3F)n2)C1 [Compound 8, [1-[6-(2-fluorophenyl)pyrazin-2-yl]pyrrolidin-3-yl]aminoformic acid tert-butyl ester]",4.82 to 5.00

row,Compound,pIC50
1,"COCCOC(=O)N[C@@H]1CCN(c2cncc(-c3ccccc3F)n2)C1 [Compound 27, [1-[6-(2-fluorophenyl)pyrazin-2-yl]pyrrolidin-3-yl]aminoformic acid 2-methoxyethyl ester]",< 4.82
2,"CC(C)COC(=O)N1CCN(c2cc(-c3ccccc3O)ncn2)CC1 [Compound 20, 4-[6-(2-hydroxyphenyl)pyrimidin-4-yl]piperazine-1-carboxylic acid isobutyl ester]",4.82 to 5.00
3,"CC(C)OC(=O)N[C@@H]1CCN(c2cncc(-c3ccccc3O)n2)C1 [Compound 41, [1-[6-(2-hydroxyphenyl)pyrazin-2-yl]pyrrolidin-3-yl]aminoformic acid isopropyl ester]",< 4.82
4,"CC(C)COC(=O)NC1CCN(c2cncc(-c3ccccc3O)n2)CC1 [Compound 18, [1-[6-(2-hydroxyphenyl)pyrazin-2-yl]-4-piperidyl]aminoformic acid isobutyl ester]",> 5.00
5,"CC(C)COC(=O)NC1CCN(c2cncc(-c3ccccc3F)n2)CC1 [Compound 45, [1-[6-(2-fluorophenyl)pyrazin-2-yl]-4-piperidyl]aminoformic acid isobutyl ester]",> 5.00
6,"CC(C)COC(=O)N1CCN(c2ccnc(-c3ccccc3O)n2)CC1 [Compound 34, 4-[2-(2-hydroxyphenyl)pyrimidin-4-yl]piperazine-1-carboxylic acid isobutyl ester]",< 4.82
7,"COCCOC(=O)N[C@@H]1CCN(c2cncc(-c3ccccc3O)n2)C1 [Compound 16, [1-[6-(2-hydroxyphenyl)pyrazin-2-yl]pyrrolidin-3-yl]aminoformic acid 2-methoxyethyl ester]",< 4.82
8,"COCCOC(=O)N[C@H]1CCN(c2cncc(-c3ccccc3C(F)F)n2)C1 [Compound 11, [1-[6-[2-(difluoromethyl)phenyl]pyrazin-2-yl]pyrrolidin-3-yl]aminoformic acid 2-methoxyethyl ester]",< 4.82
9,"CC(C)COC(=O)NC1CCN(c2cncc(-c3ccccc3C(F)F)n2)CC1 [Compound 48, [1-[6-[2-(difluoromethyl)phenyl]pyrazin-2-yl]-4-piperidyl]aminoformic acid isobutyl ester]",> 5.00
10,"CC(C)C[C@@H](O)C(=O)N1CCN(c2cncc(-c3ccccc3O)n2)CC1 [Compound 38, 2-hydroxy-1-[4-[6-(2-hydroxyphenyl)pyrazin-2-yl]piperazin-1-yl]-4-methyl-pentan-1-one]",< 4.82
11,"CC(C)(C)OC(=O)NC1CCN(c2cncc(-c3ccccc3O)n2)CC1 [Compound 52, [1-[6-(2-hydroxyphenyl)pyrazin-2-yl]-4-piperidyl]aminoformic acid tert-butyl ester]",> 5.00
12,"CC(C)COC(=O)NC1CCN(c2nccc(-c3ccccc3C(F)F)n2)CC1 [Compound 31, [1-[4-[2-(difluoromethyl)phenyl]pyrimidin-2-yl]-4-piperidyl]aminoformic acid isobutyl ester]",> 5.00
13,"CC(C)COC(=O)N1CCN(c2ccnc(-c3ccccc3C(F)F)n2)CC1 [Compound 32, 4-[2-[2-(difluoromethyl)phenyl]pyrimidin-4-yl]piperazine-1-carboxylic acid isobutyl ester]",< 4.82
14,"CC(C)C[C@@H](O)C(=O)N1CCN(c2nccc(-c3ccccc3O)n2)CC1 [Compound 39, 2-hydroxy-1-[4-[4-(2-hydroxyphenyl)pyrimidin-2-yl]piperazin-1-yl]-4-methyl-pentan-1-one]",> 5.00
15,"CC(C)COC(=O)N1CCN(c2cc(-c3ccccc3F)ncn2)CC1 [Compound 23, 4-[6-(2-fluorophenyl)pyrimidin-4-yl]piperazine-1-carboxylic acid isobutyl ester]",< 4.82
16,"CC(C)C[C@@H](O)C(=O)N1CCN(c2nccc(-c3ccccc3C(F)F)n2)CC1 [Compound 6, 1-[4-[4-[2-(difluoromethyl)phenyl]pyrimidin-2-yl]piperazin-1-yl]-2-hydroxy-4-methyl-pentan-1-one]",4.82 to 5.00

# Source: patent publication US7858786B2, “Pyrimidines and pyrazines useful as modulators of ion channels” (Vertex Pharmaceuticals Incoropated, priority 2005, dated 2010)
